Values after ≈ are worked out from the molar mass of the structure shown.
What was measured:
Staphylococcus aureus [1] = experiment: Antimicrobial activity against methicillin-resistant Staphylococcus aureus NCTC10442 assessed as bacterial growth inhibition incubated for 24 hrs by Muller Hinton broth based dilution assay; assay type: functional
Escherichia coli = experiment: Antimicrobial activity against Escherichia coli ATCC25922 assessed as bacterial growth inhibition incubated for 24 hrs by Muller Hinton broth based dilution assay; assay type: functional
Klebsiella pneumoniae [2] = experiment: Antimicrobial activity against Klebsiella pneumoniae ATCC10031 assessed as bacterial growth inhibition incubated for 24 hrs by Muller Hinton broth based dilution assay; assay type: functional
Acinetobacter baumannii [3] = experiment: Antimicrobial activity against Acinetobacter baumannii ATCC17978 assessed as bacterial growth inhibition incubated for 24 hrs by Muller Hinton broth based dilution assay; assay type: functional
Staphylococcus aureus [4] = experiment: Antimicrobial activity against methicillin-resistant Staphylococcus aureus N315 assessed as bacterial growth inhibition incubated for 24 hrs by Muller Hinton broth based dilution assay; assay type: functional
Candida albicans [5] = experiment: Antimicrobial activity against Candida albicans CMCC98001 assessed as fungal growth inhibition incubated for 48 hrs by Sabouraud Dextrose broth based dilution assay; assay type: functional
Acinetobacter baumannii [6] = experiment: Antimicrobial activity against Acinetobacter baumannii R2889 assessed as bacterial growth inhibition incubated for 24 hrs by Muller Hinton broth based dilution assay; assay type: functional
Pseudomonas aeruginosa = experiment: Antimicrobial activity against Pseudomonas aeruginosa ATCC9027 assessed as bacterial growth inhibition incubated for 24 hrs by Muller Hinton broth based dilution assay; assay type: functional
Candida albicans [7] = experiment: Antimicrobial activity against Candida albicans ATCC10231 assessed as fungal growth inhibition incubated for 48 hrs by Sabouraud Dextrose broth based dilution assay; assay type: functional
Klebsiella pneumoniae [8] = experiment: Antimicrobial activity against Klebsiella pneumoniae ATCC14581 assessed as bacterial growth inhibition incubated for 24 hrs by Muller Hinton broth based dilution assay; assay type: functional
[9] = Hemolytic activity in rabbit RBC incubated for 1 hr by absorbance based microplate reader assay; assay type: toxicity, cell-based, Oryctolagus cuniculus, Erythrocyte; settings: rabbit red blood cells (erythrocytes)
Staphylococcus aureus [10] = experiment: Antimicrobial activity against Staphylococcus aureus ATCC29213 assessed as bacterial growth inhibition incubated for 24 hrs by Muller Hinton broth based dilution assay; assay type: functional

Structure (SMILES) | MIC (Staphylococcus aureus [1]) [µg/mL] | MIC (Escherichia coli) [µg/mL] | MIC (Klebsiella pneumoniae [2]) [µg/mL] | MIC (Acinetobacter baumannii [3]) [µg/mL] | MIC (Staphylococcus aureus [4]) [µg/mL] | MIC (Candida albicans [5]) [µg/mL] | MIC (Acinetobacter baumannii [6]) [µg/mL] | MIC (Pseudomonas aeruginosa) [µg/mL] | MIC (Candida albicans [7]) [µg/mL] | MIC (Klebsiella pneumoniae [8]) [µg/mL] | HC50 at 1 h [9] [µg/mL] | MIC (Staphylococcus aureus [10]) [µg/mL]
CCCCCCCN1CCCc2cc(OCC(=O)N[C@@H](CCCNC(=N)N)C(=O)OC)ccc21 | 1.56 (≈ 3.28 µM) | 12.5 (≈ 26.3 µM) | 6.25 (≈ 13.1 µM) | 12.5 (≈ 26.3 µM) | 1.56 (≈ 3.28 µM) | 12.5 (≈ 26.3 µM) | 12.5 (≈ 26.3 µM) | 12.5 (≈ 26.3 µM) | 25 (≈ 52.6 µM) | 6.25 (≈ 13.1 µM) | > 200 | 3.12 (≈ 6.57 µM)
CC(C)=CCN1CCCc2cc(OCCCCCCNC(=N)N)ccc21 | 0.78 (≈ 2.18 µM) | 6.25 (≈ 17.4 µM) | 6.25 (≈ 17.4 µM) | 25 (≈ 69.7 µM) | 0.78 (≈ 2.18 µM) | 12.5 (≈ 34.9 µM) | 12.5 (≈ 34.9 µM) | 25 (≈ 69.7 µM) | 12.5 (≈ 34.9 µM) | 6.25 (≈ 17.4 µM) | 184 | 1.56 (≈ 4.35 µM)
CCCCCCCCCN1CCCc2cc(OCC(=O)N[C@@H](CCCNC(=N)N)C(=O)N[C@@H](CCCNC(=N)N)C(=O)N[C@@H](CCCNC(=N)N)C(=O)OC)ccc21 | 1.56 (≈ 1.91 µM) | 12.5 (≈ 15.3 µM) | 12.5 (≈ 15.3 µM) | 12.5 (≈ 15.3 µM) | 1.56 (≈ 1.91 µM) | 50 (≈ 61.3 µM) | 50 (≈ 61.3 µM) | 25 (≈ 30.6 µM) | > 50 | 12.5 (≈ 15.3 µM) | > 200 | 3.12 (≈ 3.83 µM)
FC(F)(F)CCCN1CCCc2cc(OCCCCBr)ccc21 | 12.5 (≈ 31.7 µM) | > 50 | – | – | 25 (≈ 63.4 µM) | > 50 | – | – | > 50 | – | > 200 | 25 (≈ 63.4 µM)
CC(C)=CCN1CCCc2cc(OCCCCN3CCSCC3)ccc21 | > 50 | > 50 | – | – | > 50 | > 50 | – | – | > 50 | – | > 200 | > 50
CC(C)=CCN1CCCc2cc(OCCCCN(C)C)ccc21 | 25 (≈ 79 µM) | 25 (≈ 79 µM) | – | – | 25 (≈ 79 µM) | > 50 | – | – | > 50 | – | > 200 | 25 (≈ 79 µM)
CCCCCCCN1CCCc2cc(OCCCCCCCCBr)ccc21 | > 50 | > 50 | – | – | > 50 | > 50 | – | – | > 50 | – | > 200 | > 50
CCCN1CCCc2cc(O)ccc21 | > 50 | > 50 | – | – | > 50 | > 50 | – | – | > 50 | – | > 200 | > 50
CNCCCCOc1ccc2c(c1)CCCN2CC=C(C)C | 12.5 (≈ 41.3 µM) | 25 (≈ 82.7 µM) | – | – | 6.25 (≈ 20.7 µM) | 50 (≈ 165 µM) | – | – | 50 (≈ 165 µM) | – | > 200 | 25 (≈ 82.7 µM)
CCCCCCCN1CCCc2cc(OCC(=O)OCC)ccc21 | > 50 | > 50 | – | – | > 50 | > 50 | – | – | > 50 | – | > 200 | > 50
CC(C)=CCN1CCCc2cc(OCCCCNCCN(CCN)CCN)ccc21 | 6.25 (≈ 15 µM) | 50 (≈ 120 µM) | – | – | 6.25 (≈ 15 µM) | 50 (≈ 120 µM) | – | – | > 50 | – | > 200 | 12.5 (≈ 29.9 µM)
Oc1ccc2c(c1)CCCN2CCCC(F)(F)F | > 50 | > 50 | – | – | > 50 | > 50 | – | – | > 50 | – | > 200 | > 50
CCCCCN1CCCc2cc(OCCCCBr)ccc21 | 25 (≈ 70.6 µM) | > 50 | – | – | 25 (≈ 70.6 µM) | 50 (≈ 141 µM) | – | – | 50 (≈ 141 µM) | – | > 200 | 25 (≈ 70.6 µM)
CC(C)=CCC/C(C)=C/CN1CCCc2cc(O)ccc21 | 12.5 (≈ 43.8 µM) | > 50 | – | – | 12.5 (≈ 43.8 µM) | 25 (≈ 87.6 µM) | – | – | 50 (≈ 175 µM) | – | > 200 | 12.5 (≈ 43.8 µM)
CC(C)=CCN1CCCc2cc(OCCCCCCBr)ccc21 | 25 (≈ 65.7 µM) | > 50 | – | – | 25 (≈ 65.7 µM) | 50 (≈ 131 µM) | – | – | 50 (≈ 131 µM) | – | > 200 | 50 (≈ 131 µM)
CC(C)=CCC/C(C)=C/CN1CCCc2cc(OCCCCCCCCBr)ccc21 | 6.25 (≈ 13.1 µM) | 25 (≈ 52.5 µM) | – | – | 6.25 (≈ 13.1 µM) | 12.5 (≈ 26.2 µM) | – | – | 12.5 (≈ 26.2 µM) | – | > 200 | 6.25 (≈ 13.1 µM)
CC(C)=CCN1CCCc2cc(OCCCCNC(=N)N)ccc21 | 3.12 (≈ 9.46 µM) | 25 (≈ 75.6 µM) | – | – | 1.56 (≈ 4.72 µM) | > 50 | – | – | > 50 | – | > 200 | 3.12 (≈ 9.46 µM)
CC(C)=CCN1CCCc2cc(OCCCCCCCCCCCCBr)ccc21 | > 50 | > 50 | – | – | > 50 | > 50 | – | – | > 50 | – | > 200 | > 50
N=C(N)NCCCCOc1ccc2c(c1)CCCN2CCCC(F)(F)F | 6.25 (≈ 16.8 µM) | 25 (≈ 67.1 µM) | – | – | 6.25 (≈ 16.8 µM) | > 50 | – | – | > 50 | – | > 200 | 6.25 (≈ 16.8 µM)
CCCN(CCC)CCCCOc1ccc2c(c1)CCCN2CC=C(C)C | 50 (≈ 134 µM) | > 50 | – | – | 25 (≈ 67.1 µM) | > 50 | – | – | > 50 | – | > 200 | 25 (≈ 67.1 µM)
CCCCCCCCCN1CCCc2cc(O)ccc21 | 12.5 (≈ 45.4 µM) | > 50 | – | – | 12.5 (≈ 45.4 µM) | 50 (≈ 182 µM) | – | – | 50 (≈ 182 µM) | – | > 200 | 12.5 (≈ 45.4 µM)
CC(C)=CCN1CCCc2cc(OCCCCCCCCCCBr)ccc21 | 3.12 (≈ 7.16 µM) | 25 (≈ 57.3 µM) | – | – | 3.12 (≈ 7.16 µM) | 12.5 (≈ 28.6 µM) | – | – | 12.5 (≈ 28.6 µM) | – | > 200 | 3.12 (≈ 7.16 µM)
O=C(O)c1cn(C2CC2)c2cc(N3CCNCC3)c(F)cc2c1=O [CIPROFLOXACIN] | 0.39 (≈ 1.18 µM) | 0.049 (≈ 0.148 µM) | 0.195 (≈ 0.589 µM) | 0.39 (≈ 1.18 µM) | 0.39 (≈ 1.18 µM) | – | 0.78 (≈ 2.35 µM) | 0.195 (≈ 0.589 µM) | – | 0.195 (≈ 0.589 µM) | – | 0.39 (≈ 1.18 µM)
CCCCCCCCCN1CCCc2cc(OCCCCCCCCBr)ccc21 | 50 (≈ 107 µM) | > 50 | – | – | 25 (≈ 53.6 µM) | > 50 | – | – | > 50 | – | > 200 | 25 (≈ 53.6 µM)
CCCCN1CCCc2cc(OCCCCBr)ccc21 | 6.25 (≈ 18.4 µM) | 50 (≈ 147 µM) | – | – | 6.25 (≈ 18.4 µM) | 50 (≈ 147 µM) | – | – | > 50 | – | > 200 | 12.5 (≈ 36.7 µM)
CCCCCNCCCCOc1ccc2c(c1)CCCN2CC=C(C)C | 6.25 (≈ 17.4 µM) | 50 (≈ 139 µM) | – | – | 6.25 (≈ 17.4 µM) | > 50 | – | – | > 50 | – | 146 | 6.25 (≈ 17.4 µM)

From ChEMBL document CHEMBL5352419, “Design, synthesis, and biological evaluation of tetrahydroquinoline amphiphiles as membrane-targeting antimicrobials against pathogenic bacteria and fungi” (Eur J Med Chem, 2022)
